# Patent publication US8642623B2, “Vanilloid receptor ligand compounds, pharmaceutical compositions containing them, a method of producing them and the use thereof to treat pain and various other conditions” (Gruenenthal GmbH, priority 2007, dated 2014)
# How the values were obtained:
# Type in all cases: cell-based
# [1] = molecular target: T1, vanilloid receptor 1 (VR1/TRPV1) of the rat species (Rattus norvegicus, UniProt O35433); assay: FLIPR Ca2+ influx assay on rat dorsal root ganglia cells, capsaicin stimulus (Pharmacological method I); conditions: capsaicin 100 nM stimulus, Ki from IC50 by Cheng-Prusoff
# T1 construct: The spinal column is removed from decapitated rats; from tissue; host or cells: primary cells from rat dorsal root ganglia (DRG)
# T1 sequence (O35433 whole entry): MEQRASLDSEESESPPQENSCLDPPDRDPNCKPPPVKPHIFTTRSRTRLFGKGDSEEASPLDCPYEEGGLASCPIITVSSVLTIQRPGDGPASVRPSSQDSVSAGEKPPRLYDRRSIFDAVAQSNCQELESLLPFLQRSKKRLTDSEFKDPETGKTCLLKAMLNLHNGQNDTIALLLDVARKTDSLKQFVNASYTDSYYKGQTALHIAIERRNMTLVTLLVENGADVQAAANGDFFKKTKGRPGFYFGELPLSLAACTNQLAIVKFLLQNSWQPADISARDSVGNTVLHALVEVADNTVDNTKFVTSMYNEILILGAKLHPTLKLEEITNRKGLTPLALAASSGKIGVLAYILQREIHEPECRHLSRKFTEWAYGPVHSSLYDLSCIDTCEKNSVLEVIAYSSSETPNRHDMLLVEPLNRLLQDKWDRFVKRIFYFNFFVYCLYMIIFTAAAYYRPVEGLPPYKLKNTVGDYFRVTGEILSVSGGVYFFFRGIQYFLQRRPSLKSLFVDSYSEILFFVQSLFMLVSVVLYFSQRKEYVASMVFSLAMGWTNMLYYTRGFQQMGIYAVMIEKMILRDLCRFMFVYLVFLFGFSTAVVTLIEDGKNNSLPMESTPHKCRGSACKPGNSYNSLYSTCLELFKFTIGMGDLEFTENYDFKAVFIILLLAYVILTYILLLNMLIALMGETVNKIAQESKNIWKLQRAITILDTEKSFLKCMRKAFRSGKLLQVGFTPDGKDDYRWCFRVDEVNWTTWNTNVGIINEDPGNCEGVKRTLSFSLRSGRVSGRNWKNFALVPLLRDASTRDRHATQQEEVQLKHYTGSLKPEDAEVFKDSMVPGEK
# Method: (§1) The agonistic or antagonistic action of the substances to be investigated on the vanilloid receptor 1 (VR1/TRPV1) of the rat species may be determined with the following assay. According to this assay, the influx of Ca^2+ through the receptor channel is quantified with the assistance of a Ca^2+-sensitive dye (type Fluo-4, Molecular Probes Europe BV, Leiden, Netherlands) in a Fluorescent Imaging Plate Reader (FLIPR, Molecular Devices, Sunnyvale, USA).
# Complete medium: 50 mL HAMS F12 Nutrient Mixture (Gibco Invitrogen GmbH, Karlsruhe, Germany) with 10 vol. % FCS (foetal calf serum, Gibco Invitrogen GmbH, Karlsruhe, Germany, heat-inactivated);
# Cell culture plate: poly-D-lysine-coated, black 96-hole plates with clear base (96 well black/clear plate, BD Biosciences, Heidelberg, Germany) are additionally coated with laminin (Gibco Invitrogen GmbH, Karlsruhe, Germany), by diluting laminin to a concentration of 100 μg/mL with PBS (Ca—Mg-free PBS, Gibco Invitrogen GmbH, Karlsruhe, Germany). Aliquots with a concentration of 100 μg/mL of laminin are taken and stored at −20° C. The aliquots are diluted with PBS in the ratio of 1:10 to 10 μg/mL of laminin and 50 μL of the solution is pipetted into each well of the cell culture plate. The cell culture plates are incubated for at least two hours at 37° C., the supernatant solution is aspirated and the wells are each washed twice with PBS. The coated cell culture plates are stored with supernatant PBS and this is only removed directly prior to introduction of the cells.
# The spinal column is removed from decapitated rats and this is placed directly in cold HBSS buffer (Hank's buffered saline solution, Gibco Invitrogen GmbH, Karlsruhe, Germany), i.e. located in an ice bath, combined with 1 vol. % (percent by volume) of an AA solution (antibiotic/antimycotic solution, PAA, Pasching, Austria). The spinal column is severed lengthwise and removed from the spinal canal together with fasciae. The dorsal root ganglia (DRGs) are then removed and in turn stored in cold HBSS buffer combined with 1 vol. % of an AA solution. The DRGs, from which blood residues and spinal nerves have been completely removed, are in each case transferred into 500 μL cold collagenase type 2 (PAA, Pasching, Austria) and incubated for 35 minutes at 37° C. After the addition of 2.5 vol. % trypsin (PAA, Pasching, Austria) incubation at 37° C. is continued for a further 10 minutes. After complete incubation, the enzyme solution is carefully pipetted off and the remaining DRGs are combined in each case with 500 μL of complete medium.
# The DRGs are in each case repeatedly suspended, drawn through cannulas no. 1, no. 12 and no. 16 by means of a syringe and transferred into 50 mL Falcon microtubes, these being filled to 15 mL with complete medium. The content of each Falcon microtube is in each case filtered through a 70 μm Falcon filter insert and centrifuged for 10 minutes at 1200 revolutions and room temperature. The resultant pellet is in each case redissolved in 250 μL of complete medium and the cell count is determined.
# The number of cells in the suspension is adjusted to 3×10^5 per mL and a 150 μL portion of this suspension is in each case placed in a well of the cell culture plates which have been coated as described above. The plates are left to stand in the incubator for two to three days at 37° C., 5 vol. % CO2 and 95% relative atmospheric humidity.
# The cells are then loaded with 2 μM Fluo-4 and 0.01 vol. % Pluronic F127 (Molecular Probes Europe BV, Leiden, Netherlands) in HBSS buffer (Hank's buffered saline solution, Gibco Invitrogen GmbH, Karlsruhe, Germany) for 30 min at 37° C., washed 3×with HBSS buffer and, after a further 15 minutes' incubation at room temperature, used for Ca^2+ measurement in the FLIPR assay. Ca^2+-dependent fluorescence is here measured before and after the addition of substances (λex=488 nm, λem=540 nm). […]
# vanilloid receptor (VR1) = molecular target: T2, vanilloid receptor (VR1) (Homo sapiens, UniProt Q8NER1); assay: FLIPR Ca2+ influx assay with CHO K1 cells transfected with the human VR1 gene, capsaicin stimulus (Pharmacological method II); conditions: capsaicin 100 nM stimulus, Ki from IC50 by Cheng-Prusoff
# T2 construct: expressed in transfected cells; host or cells: CHO K1 cells (ECACC), stably transfected
# T2 sequence (Q8NER1 whole entry): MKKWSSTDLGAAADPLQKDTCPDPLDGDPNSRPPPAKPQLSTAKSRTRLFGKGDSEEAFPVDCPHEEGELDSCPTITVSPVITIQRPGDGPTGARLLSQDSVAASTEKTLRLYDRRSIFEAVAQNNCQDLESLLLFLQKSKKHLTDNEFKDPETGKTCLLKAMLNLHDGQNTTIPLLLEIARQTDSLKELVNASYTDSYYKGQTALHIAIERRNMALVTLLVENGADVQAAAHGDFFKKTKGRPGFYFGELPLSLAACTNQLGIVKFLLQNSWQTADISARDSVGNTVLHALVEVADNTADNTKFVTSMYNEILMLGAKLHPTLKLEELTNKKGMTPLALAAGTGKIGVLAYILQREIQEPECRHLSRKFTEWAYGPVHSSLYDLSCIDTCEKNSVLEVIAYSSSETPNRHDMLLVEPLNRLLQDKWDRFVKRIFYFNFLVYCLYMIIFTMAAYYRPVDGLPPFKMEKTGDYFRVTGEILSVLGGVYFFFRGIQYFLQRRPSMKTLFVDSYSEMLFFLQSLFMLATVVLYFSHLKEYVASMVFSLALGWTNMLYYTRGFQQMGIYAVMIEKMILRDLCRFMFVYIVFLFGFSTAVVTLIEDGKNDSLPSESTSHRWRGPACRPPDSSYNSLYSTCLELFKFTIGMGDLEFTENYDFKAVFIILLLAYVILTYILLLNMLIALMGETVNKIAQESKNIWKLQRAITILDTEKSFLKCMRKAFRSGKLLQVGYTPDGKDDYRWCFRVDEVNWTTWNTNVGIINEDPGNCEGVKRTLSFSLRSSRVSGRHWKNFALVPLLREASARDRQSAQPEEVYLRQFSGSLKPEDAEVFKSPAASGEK
# Method: In addition, compounds according to the invention of the general formulae I, Ia, Ib, I′, I″, I′″ may be preferred which, in a FLIPR assay with CHO K1 cells which have been transfected with the human gene VR1, in a concentration of less than 2000 nM, preferably of less than 1000 nM, particularly preferably of less then 300 nM, very particularly preferably of less than 100 nM, still more preferably of less than 75 nM, further preferably of less than 50 nM, most preferably of less than 10 nM, bring about 50% displacement of capsaicin which is present in a concentration of 100 nM.
# In this FLIPR assay, the influx of Ca^2+ is quantified with the assistance of a Ca^2+-sensitive dye (type Fluo-4, Molecular Probes Europe BV, Leiden, Netherlands) in a Fluorescent Imaging Plate Reader (FLIPR, Molecular Devices, Sunnyvale, USA) as described below.
# as §1, with “(VR1)” for “1 (VR1/TRPV1) of the rat species”, “may also” for “may”, “the” for “the receptor”
# Chinese hamster ovary cells (CHO K1 cells, European Collection of Cell Cultures (ECACC), Great Britain) are stably transfected with the VR1 gene. For functional investigations, these cells are plated out onto poly-D-lysine-coated, black 96-hole plates with a clear base (BD Biosciences, Heidelberg, Germany) at a density of 25,000 cells/hole. The cells are incubated overnight at 37° C. and 5% CO2 in a culture medium (Ham's Nutrient Mixture F12, 10 vol. % FCS (foetal calf serum), 18 μg/mL L-proline). On the following day, the cells are incubated with Fluo-4 (Fluo-4 2 μM, Pluronic F127 0.01 vol. %, Molecular Probes in HBSS (Hank's buffered saline solution), Gibco Invitrogen GmbH, Karlsruhe, Germany) for 30 minutes at 37° C. The plates are then washed 3 times with HBSS buffer and, after a further 15 minutes' incubation at room temperature, used for Ca^2+ measurement in the FLIPR. Ca^2+-dependent fluorescence is here measured before and after the addition of the substances to be investigated (wavelength λex=488 nm, λem=540 nm). Quantification proceeds by measuring the highest fluorescence intensity (FC, fluorescence counts) over time.
# The FLIPR protocol consists of 2 additions of substance. The substances to be tested (10 μM) are firstly pipetted onto the cells and Ca^2+ influx is compared with the control (capsaicin 10 μM) (% activation relative to the Ca^2+ signal after addition of 10 μM of capsaicin). After 5 minutes' incubation, 100 nM of capsaicin are added and the influx of Ca^2+ is likewise determined.
# The percentage inhibition in comparison with the maximum achievable inhibition with 10 μM capsaicin is calculated.
# On the basis of the percentage displacement by different concentrations of the compounds to be tested of the general formula I, IC50 inhibition concentrations which bring about 50% displacement of capsaicin were calculated. Ki values for the test substances were obtained by conversion using the Cheng-Prusoff equation (Cheng, Prusoff; Biochem. Pharmacol. 22, 3099-3108, 1973).
# [2] = molecular target: vanilloid receptor 1 (VR1/TRPV1 receptor) (Homo sapiens, UniProt Q8NER1); assay: Human VR1/TRPV1 receptor inhibition after pH stimulus
# vanilloid receptor 1 (VR1/TRPV1 receptor), sequence (Q8NER1 whole entry): as above
compound,measurement,setting,value
"CC(C(=O)NCc1ccc(C(C)(C)C)cc1SC1CCCCC1)c1ccc(N(C)S(C)(=O)=O)c(F)c1 (centres unmarked) [Example 15, N-(4-tert.-butyl-2-(cyclohexylthio)benzyl)-2-(3-fluoro-4-(N-methylmethylsulfonamido)phenyl)propanamide]",Ki,[1],7.6 nM
same,Ki,vanilloid receptor (VR1),18.3 nM
same,inhibition at 1 µM,[2]; compound 1 μM,0%
same,inhibition at 5 µM,[2]; compound 5 μM,6%
same,inhibition at 10 µM,[2]; compound 10 μM,30%
